# Laboratory results reported in patent US6451834B1, “Indeno[1,2-c]-, naphtho[1,2-c]- and benzo[6,7]cyclohepta[1,2-c]pyrazole derivatives” (BASF Aktiengesellschaft, priority 1997, dated 2002).
# Tested on: not given
# Assay: not given
# Conditions: not given
row,Structure (SMILES),melting point
1,"Cc1ccc(-c2n[nH]c3c2Cc2ccccc2-3)cc1 [Example 7, 3-(p-tolyl)-1,4-dihydroindeno[1,2-c]pyrazole]",267 to 269 °C
2,"COc1cccc(-c2n[nH]c3c2Cc2ccccc2-3)c1 [Example 5, 3-(3-methoxyphenyl)-1,4-dihydroindeno[1,2-c]pyrazole]",172 to 174 °C
3,"c1coc(-c2n[nH]c3c2Cc2ccccc2-3)c1 [Example 9, 3-(2-furyl)-1,4-dihydroindeno[1,2-c]pyrazole]",195 to 197 °C
4,"COc1ccc(-c2n[nH]c3c2Cc2ccccc2-3)cc1 [Example 6, 3-(4-methoxyphenyl)-1,4-dihydroindeno[1,2-c]pyrazole]",247 °C
5,"c1cncc(-c2n[nH]c3c2Cc2ccccc2-3)c1 [Example 1, 3-(3-Pyridyl)-1,4-dihydroindeno[1,2-c]pyrazole]",223 to 224 °C
6,"COc1ccc2c(c1)Cc1c(-c3cccs3)n[nH]c1-2 [Example 8, 6-methoxy-3-(2-thienyl)-1,4-dihydroindeno[1,2-c]pyrazole]",212 to 214 °C
7,"c1csc(-c2n[nH]c3c2CCc2ccccc2-3)c1 [Example 3, 3-(2-Thienyl)-4,5-dihydro-1H-benz[g]indazole]",206 to 208 °C
8,"c1ccc2c(c1)Cc1c(-c3ccsc3)n[nH]c1-2 [Example 29, 3-(3-thienyl)-1,4-dihydroindeno[1,2-c]pyrazole]",219 to 220 °C

# Target: T1, KDR tyrosine kinase (Homo sapiens, UniProt P35968)
# T1 construct: KDR intra-cellular domain (aa789-1354); poly-His6 (N); made in house; host or cells: SF-9 insect cells, recombinant baculovirus (pVL1393)
# T1 sequence (P35968 789-1354): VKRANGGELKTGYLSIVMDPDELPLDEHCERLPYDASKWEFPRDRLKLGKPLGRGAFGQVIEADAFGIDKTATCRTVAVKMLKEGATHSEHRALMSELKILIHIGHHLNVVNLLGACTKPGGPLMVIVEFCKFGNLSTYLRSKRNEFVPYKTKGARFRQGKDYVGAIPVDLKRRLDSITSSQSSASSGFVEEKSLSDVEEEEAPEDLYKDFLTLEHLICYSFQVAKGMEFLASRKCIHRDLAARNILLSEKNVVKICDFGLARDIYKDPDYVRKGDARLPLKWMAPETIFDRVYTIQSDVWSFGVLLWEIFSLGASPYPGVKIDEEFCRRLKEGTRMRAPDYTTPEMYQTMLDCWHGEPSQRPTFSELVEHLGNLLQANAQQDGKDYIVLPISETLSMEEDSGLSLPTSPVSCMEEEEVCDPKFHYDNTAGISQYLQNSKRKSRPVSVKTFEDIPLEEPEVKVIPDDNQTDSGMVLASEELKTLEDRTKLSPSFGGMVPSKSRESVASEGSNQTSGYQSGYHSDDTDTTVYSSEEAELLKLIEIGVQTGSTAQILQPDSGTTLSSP
# Assay: KDR in vitro ELISA
# Format: biochemical
# Conditions: ATP 5 μM
# Experimental: The following procedure was used to assay the inhibitory effect of compounds of this invention on KDR tyrosine kinase activity:
# Dilute PGT stock (50 mg/ml, frozen) in PBS to a 250 μg/ml. […] Add 125 μl PBS to blank wells. Cover with sealing tape and incubate overnight 37° C. Wash 1× with 250 μl washing buffer and dry for about 2 hrs in 37° C. dry incubator.
# Prepare inhibitor solutions at a 4× concentration in 20% DMSO in water.
# Prepare enzyme solution so that desired units are in 50 μl, e.g. for KDR make to 1 ng/μl for a total of 50 ng per well in the reactions. Store on ice.
# Make 4× ATP solution to 20 μM from 100 mM stock in water. Store on ice.
# Add 50 μl of the enzyme solution per well.
# Add 25 μl 4× ATP for inhibitor assay.
# Incubate for 10 minutes at room temperature.
# Stop reaction by adding 50 μl 0.05N HCl per well.
# Dilute 1 mg/ml aliquot of PY20-HRP (Pierce) antibody to 50 ng/ml in 0.1% BSA in PBS by a 2 step dilution (100×, then 200×).
# Add 100 μl Ab per well. Incubate 1 hr at room temp. Incubate 1 hr at 4C.
# Prepare TMB substrate and add 100 μl per well.
# Monitor OD at 650 nm until 0.6 is reached.
# Stop with 1M Phosphoric acid. Shake on plate reader.
row,Structure (SMILES),IC50
1,C1=NC(n2nc(-c3ccccc3)cc2-c2ccccc2)NC1 (centres unmarked),> 100 µM
2,Cc1c2c(nn1-c1ccccc1)-c1ccccc1C2=O,> 100 µM

# Tested on: Human umbilical vein endothelial cells (HUVEC)
# Assay: HUVEC mitogenesis assay
# Format: cell-based
# Conditions: 50 ng/ml VEGF, tritiated thymidine, read-out: VEGF-Stimulated Mitogenesis IC50
# Experimental: Human umbilical vein endothelial cells (HUVEC) were cultured in EGM-Complete Media (endothelial growth media supplemented with 10% FBS, hydrocortisone, epidermal growth factor and bovine brain extract as per the supplier's directions). Cells, media and supplements were purchased from Clonetics (San Diego, Calif.). The HUVEC Mitogenesis Assay was used to measure inhibition of mitogenesis induced by VEGF, FGF or Complete Media. Cells were harvested by trypsinization, washed once and suspended in Complete Media (CM) at a concentration of 5,000 cells/0.15 ml. Cells were seeded into 96-well plates at 5,000 cells/well and incubated at 37 C for 24 hours. Cells were washed once with serum-free media (SFM) and incubated under serum-free conditions for 24 hours. Non-serum starved control wells were cultured with CM during this period. Test compounds were prepared as 10 mM stock solutions in DMSO, diluted in SFM and added to wells over a concentration range (0.005-50 μM final concentration). Cells were incubated for 1 hour prior to addition of 50 ng/ml VEGF or FGF (R & D Systems, Minneapolis, Minn.). Complete media stimulated wells received the test compound and stimulus simultaneously. […] Plates were harvested onto filter mats with a Tomtec Harvester and counted with a Betaplate liquid scintillation counter (Wallac).
row,Structure (SMILES),IC50
1,c1csc(-c2n[nH]c3c2Cc2ccccc2-3)c1,2 µM
